What was measured:
[1] = biological target: Non-receptor tyrosine-protein kinase TYK2 (Homo sapiens, UniProt P29597)
[2] = biological target: Tyrosine-protein kinase BTK (Homo sapiens, UniProt Q06187)
[3] = biological target: Tyrosine-protein kinase JAK1 (Homo sapiens, UniProt P23458)
Tyrosine-protein kinase JAK1, sequence (P23458 whole entry): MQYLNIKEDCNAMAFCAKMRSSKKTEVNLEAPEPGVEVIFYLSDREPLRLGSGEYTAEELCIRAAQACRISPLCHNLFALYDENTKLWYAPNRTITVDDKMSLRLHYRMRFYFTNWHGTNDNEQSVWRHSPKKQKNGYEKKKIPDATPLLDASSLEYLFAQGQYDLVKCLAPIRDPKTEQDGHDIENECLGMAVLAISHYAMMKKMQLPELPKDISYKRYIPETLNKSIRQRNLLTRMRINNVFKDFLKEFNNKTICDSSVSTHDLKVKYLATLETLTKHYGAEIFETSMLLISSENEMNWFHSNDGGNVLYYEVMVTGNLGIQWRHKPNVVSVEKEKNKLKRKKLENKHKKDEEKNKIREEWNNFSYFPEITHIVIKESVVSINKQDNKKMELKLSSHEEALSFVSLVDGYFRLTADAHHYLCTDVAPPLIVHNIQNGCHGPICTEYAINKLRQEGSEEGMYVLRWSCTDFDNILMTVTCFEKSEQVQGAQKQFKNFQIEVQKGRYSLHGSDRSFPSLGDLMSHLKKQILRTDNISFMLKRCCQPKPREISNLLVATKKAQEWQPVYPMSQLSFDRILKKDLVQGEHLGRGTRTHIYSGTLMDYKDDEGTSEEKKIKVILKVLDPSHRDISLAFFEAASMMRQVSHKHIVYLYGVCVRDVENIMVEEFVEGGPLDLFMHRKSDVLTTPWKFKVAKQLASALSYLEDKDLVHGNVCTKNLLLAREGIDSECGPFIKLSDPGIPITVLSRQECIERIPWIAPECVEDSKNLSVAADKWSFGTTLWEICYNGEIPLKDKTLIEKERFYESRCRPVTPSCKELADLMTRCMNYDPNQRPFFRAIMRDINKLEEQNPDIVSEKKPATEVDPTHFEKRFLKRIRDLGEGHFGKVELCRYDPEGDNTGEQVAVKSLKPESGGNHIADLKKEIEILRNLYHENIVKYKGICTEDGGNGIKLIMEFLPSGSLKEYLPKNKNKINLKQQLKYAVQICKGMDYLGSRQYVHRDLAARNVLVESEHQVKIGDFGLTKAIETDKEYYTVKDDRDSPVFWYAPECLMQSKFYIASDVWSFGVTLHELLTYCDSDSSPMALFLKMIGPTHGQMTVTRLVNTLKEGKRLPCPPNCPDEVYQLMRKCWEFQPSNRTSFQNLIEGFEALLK

Non-receptor tyrosine-protein kinase TYK2, sequence (P29597 whole entry): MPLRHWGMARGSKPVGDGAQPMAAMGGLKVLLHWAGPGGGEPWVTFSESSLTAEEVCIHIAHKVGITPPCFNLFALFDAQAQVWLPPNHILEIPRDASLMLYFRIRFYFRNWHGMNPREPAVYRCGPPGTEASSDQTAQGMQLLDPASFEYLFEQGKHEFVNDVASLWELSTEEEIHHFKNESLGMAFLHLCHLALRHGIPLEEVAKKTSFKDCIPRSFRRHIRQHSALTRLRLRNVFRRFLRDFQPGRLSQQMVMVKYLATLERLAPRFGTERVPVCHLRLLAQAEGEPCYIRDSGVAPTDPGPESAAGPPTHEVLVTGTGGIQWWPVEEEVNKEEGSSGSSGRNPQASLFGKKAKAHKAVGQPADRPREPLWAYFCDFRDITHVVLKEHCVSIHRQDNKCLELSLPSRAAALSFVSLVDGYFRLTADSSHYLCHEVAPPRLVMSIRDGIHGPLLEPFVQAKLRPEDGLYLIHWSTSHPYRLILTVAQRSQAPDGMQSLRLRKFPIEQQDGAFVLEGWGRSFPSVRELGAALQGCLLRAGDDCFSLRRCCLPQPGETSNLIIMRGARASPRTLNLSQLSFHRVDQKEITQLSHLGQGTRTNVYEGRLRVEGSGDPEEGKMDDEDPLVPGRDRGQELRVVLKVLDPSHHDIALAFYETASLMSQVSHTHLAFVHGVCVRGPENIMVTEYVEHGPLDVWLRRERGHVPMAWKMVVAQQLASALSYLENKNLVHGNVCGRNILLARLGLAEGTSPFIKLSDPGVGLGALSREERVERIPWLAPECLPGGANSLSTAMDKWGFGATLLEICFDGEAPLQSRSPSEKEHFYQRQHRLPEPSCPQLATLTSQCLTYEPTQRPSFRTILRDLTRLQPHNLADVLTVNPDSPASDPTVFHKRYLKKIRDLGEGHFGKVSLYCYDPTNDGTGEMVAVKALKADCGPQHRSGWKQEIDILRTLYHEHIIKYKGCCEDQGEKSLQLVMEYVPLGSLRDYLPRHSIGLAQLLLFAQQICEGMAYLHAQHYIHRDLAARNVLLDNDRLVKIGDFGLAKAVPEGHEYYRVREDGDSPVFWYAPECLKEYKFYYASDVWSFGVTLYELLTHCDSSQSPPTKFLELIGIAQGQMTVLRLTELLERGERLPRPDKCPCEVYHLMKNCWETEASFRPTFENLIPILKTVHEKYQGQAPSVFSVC
Tyrosine-protein kinase BTK, sequence (Q06187 whole entry): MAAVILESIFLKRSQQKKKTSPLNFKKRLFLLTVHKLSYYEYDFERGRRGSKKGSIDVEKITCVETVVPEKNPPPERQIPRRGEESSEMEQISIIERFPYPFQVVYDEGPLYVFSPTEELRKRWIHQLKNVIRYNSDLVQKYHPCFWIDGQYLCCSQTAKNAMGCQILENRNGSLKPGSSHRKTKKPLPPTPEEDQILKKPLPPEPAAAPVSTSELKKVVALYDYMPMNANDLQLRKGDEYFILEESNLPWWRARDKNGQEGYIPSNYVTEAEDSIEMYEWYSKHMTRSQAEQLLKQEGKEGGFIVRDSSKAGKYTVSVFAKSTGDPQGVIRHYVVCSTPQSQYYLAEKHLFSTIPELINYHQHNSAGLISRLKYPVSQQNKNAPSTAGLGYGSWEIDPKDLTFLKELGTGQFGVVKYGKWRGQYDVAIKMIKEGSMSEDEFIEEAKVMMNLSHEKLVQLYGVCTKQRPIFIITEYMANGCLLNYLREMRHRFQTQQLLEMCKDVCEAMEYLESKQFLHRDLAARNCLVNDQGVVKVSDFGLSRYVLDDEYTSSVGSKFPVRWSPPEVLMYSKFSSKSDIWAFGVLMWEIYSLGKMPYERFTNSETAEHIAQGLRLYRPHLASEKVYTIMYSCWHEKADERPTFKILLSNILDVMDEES

| Structure (SMILES) | IC50 [1] [nM] | IC50 [2] [nM] | IC50 [3] [nM] |
| --- | --- | --- | --- |
| C=CC(=O)N1CCC(n2nc(-c3cnn(C)c3)c3c(N)ncnc32)C1 (stereo not given) | 1420 | 203 | 694 |
| Cn1cc(-c2nn(C3CCCN(C(=O)CC#N)C3)c3ncnc(N)c23)cn1 (stereo not given) | 2430 |  | 342 |
| COCCn1cc(-c2nn(C3CCCN(C(=O)CC#N)C3)c3ncnc(N)c23)cn1 (stereo not given) | 3220 |  | 497 |
| Cn1cc(-c2nn(CC3CCCN(C(=O)CC#N)C3)c3ncnc(N)c23)cn1 (stereo not given) | 2350 |  | 147 |
| COCCn1cc(-c2nn(C3CCN(C#N)CC3)c3ncnc(N)c23)cn1 |  |  | 112 |
| C=CC(=O)N1CCCC(Cn2nc(-c3cnn(CCOC)c3)c3c(N)ncnc32)C1 (stereo not given) | 3300 | 420 | 1670 |
| C=CC(=O)N1CCCC(n2nc(-c3cnn(C)c3)c3c(N)ncnc32)C1 (stereo not given) | 1180 | 180 | 618 |

The remaining molecules from weak to strong by IC50 [3], led by results:

| IC50 [1] [nM] | IC50 [2] [nM] | IC50 [3] [nM] | Structure (SMILES) |
| --- | --- | --- | --- |
|  |  | 2290 | CN(C)CC(=O)N1CCCC(Cn2nc(-c3cnn(C)c3)c3c(N)ncnc32)C1 (stereo not given) |
| 3960 | 481 | 1950 | C=CC(=O)N1CCCC(Cn2nc(-c3cnn(C)c3)c3c(N)ncnc32)C1 (stereo not given) |
|  |  | 1370 | CN(C)CC(=O)N1CCCC(n2nc(-c3cnn(C)c3)c3c(N)ncnc32)C1 (stereo not given) |
| 2120 | 159 | 1350 | C=CC(=O)N1CCCC(n2nc(-c3cnn(CCOC)c3)c3c(N)ncnc32)C1 (stereo not given) |
| 1720 | 126 | 1070 | C=CC(=O)N1CCC(n2nc(-c3cnn(CCOC)c3)c3c(N)ncnc32)C1 (stereo not given) |
| > 3000 |  | 497 | COCCn1cc(-c2nn(CC3CCCN(C(=O)CC#N)C3)c3ncnc(N)c23)cn1 (stereo not given) |
|  |  | 165 | Cn1cc(-c2nn(C3CCN(C#N)CC3)c3ncnc(N)c23)cn1 |
